Laboratory results reported in EP0503203A1, “Novel thrombin inhibitors” (MERRELL DOW PHARMACEUTICALS INC., priority 1991, dated 1992).

Tests used:
human plasma [1] = assay: Anticoagulant effect in human plasma, activated partial thromboplastin time (aPTT); assay type: biochemical
Excerpt: (§1) Anticoagulant data may be represented as follows:

human plasma [2] = assay: Anticoagulant effect in human plasma, thrombin time (TT); assay type: biochemical
Excerpt: as §1

HUMAN LUNG TRYPTASE = assay: Inhibition of tryptase, progress curve analysis; assay type: biochemical; conditions: non-linear regression (ENZFITTER)
Excerpt: Using standard in vitro methodology for determining inhibitory activity of tryptase (Journal of Biological Chemistry, Vol. 261, June 5, pp. 7372-7379, 1986), the following results have been obtained.

rats = assay: FeCl₃-induced thrombosis model in rats; assay type: in vivo; conditions: intravenously 10 mg/kg of body weight injection, followed by continuous 1 mg/kg/minute infusion, 4 rats
Excerpt: In vivo anti-thrombotic effects in rats may also be utilized for evaluation. […] Of course, actual dosage and frequency will vary dependent upon the nature and severity of the condition, age, general health conditions and such other factors well known and appreciated by the skilled attending diagnostician.

| kon (HUMAN LUNG TRYPTASE) [M⁻¹ s⁻¹] | Compound | ID₂ aPTT (amount required for doubling the clotting time) (human plasma [1]) [µM] | ID₂ TT (amount required for doubling the clotting time) (human plasma [2]) [µM] | occlusion (rats) |
| --- | --- | --- | --- | --- |
| 200 ± 10 | CN[C@H](Cc1ccccc1)C(=O)N1CCC[C@H]1C(=O)NC(CCCNC(=N)N)C(=O)C(F)(F)F (stereo partly drawn) [D-CH₃Phe-Pro-Arg-CF₃, N-Methyl-D-phenylalanyl-N[4-(aminoiminomethyl)amino-1-(trifluoroacetyl)butyl]-L-proline amide] | 218 | 108 | – |
| 1200 ± 40 | N=C(N)NCCCC(NC(=O)[C@@H]1CCCN1C(=O)[C@H](N)Cc1ccccc1)C(=O)C(F)(F)C(F)(F)F (stereo partly drawn) [D-Phe-Pro-Arg-CF₂CF₃, D-phenylalanyl-N-[4-(aminoiminomethyl)amino]-1-(pentafluoropropionylbutyl]-L-prolineamide, 1.5 HF, O.5 CH₃CO₂H, 3H₂O] | 2 | 1 | preventing occlusion in two rats and prolonging occlusion in the other 2 of the 4 rats |
| 370 ± 40 | N=C(N)NCCCC(NC(=O)[C@@H]1CCCN1C(=O)[C@H](N)Cc1ccccc1)C(=O)C(F)(F)F (stereo partly drawn) [D-Phe-Pro-Arg-CF₃] | 148 | 43 | – |
